Format in all cases: functional
One assay relates to Nannizzia gypsea. Description: Antifungal activity against Microsporum gypseum by broth microdilution method.
For another assay, the system named is Candida tropicalis. As to the kind of experiment: Antifungal activity against Candida tropicalis by broth microdilution method. Background: Dilution methods test growth across graded concentrations, often in twofold steps.
A further assay deals with Aspergillus fumigatus. As to the kind of experiment: Antifungal activity against Aspergillus fumigatus by broth microdilution method.
The next assay deals with Fusarium. Description: Antifungal activity against Fusarium by broth microdilution method.
For another assay, the system named is Candida albicans. As to the kind of experiment: Antifungal activity against Candida albicans ATCC Y0109 after 24 hrs by broth microdilution method.
For the next assay, the system named is Trichophyton rubrum. Description: Antifungal activity against Trichophyton rubrum by broth microdilution method.
Another assay concerns Cryptococcus neoformans. As to the kind of experiment: Antifungal activity against Cryptococcus neoformans ATCC BLS108 after 72 hrs by broth microdilution method.
The next assay has as its system Candida parapsilosis. Description: Antifungal activity against Candida parapsilosis by broth microdilution method. As to conditions: Lodderomyces parapsilosis.

As usually defined, the MIC80 is the lowest concentration that inhibits either 80% of growth or 80% of the strains tested, depending on the study. Read a high MIC80 as weaker potency.

≈ marks a conversion by molar mass, not a printed value. Bounds are passed on as bounds.

Consider `O=C(/C=C/c1cccc(Br)c1)Nc1ccc(N2CCN(CC(O)(Cn3cncn3)c3ccc(F)cc3F)CC2)cc1` (stereo unspecified), for which the MIC80 came out at 1 µg/mL (≈ 1.6 µM) against Nannizzia gypsea; 0.25 µg/mL (≈ 0.401 µM) against Candida tropicalis; 16 µg/mL (≈ 25.7 µM) in the assay with Aspergillus fumigatus; 1 µg/mL (≈ 1.6 µM) in the assay on Fusarium; 0.0625 µg/mL (≈ 0.1 µM) against Candida albicans; 0.0625 µg/mL (≈ 0.1 µM) against Trichophyton rubrum. The MIC80 against Cryptococcus neoformans stood at 1 µg/mL (≈ 1.6 µM); with Candida parapsilosis, 0.25 µg/mL (≈ 0.401 µM).
Consider `Cc1ccc(/C=C/C(=O)Nc2ccc(N3CCN(CC(O)(Cn4cncn4)c4ccc(F)cc4F)CC3)cc2)cc1` (stereo unspecified), for which the MIC80 in the assay on Nannizzia gypsea was 0.25 µg/mL (≈ 0.448 µM); in the assay on Candida tropicalis, 0.25 µg/mL (≈ 0.448 µM); in the assay on Aspergillus fumigatus, 64 µg/mL (≈ 115 µM); against Fusarium it was 16 µg/mL (≈ 28.6 µM); in the assay on Candida albicans, 0.0625 µg/mL (≈ 0.112 µM); against Trichophyton rubrum it was 0.0156 µg/mL (≈ 0.0279 µM). The MIC80 in the assay on Cryptococcus neoformans came to 1 µg/mL (≈ 1.79 µM); in the assay on Candida parapsilosis, 0.25 µg/mL (≈ 0.448 µM).
On to `COc1ccc(OC)c(/C=C/C(=O)Nc2ccc(N3CCN(CC(O)(Cn4cncn4)c4ccc(F)cc4F)CC3)c(F)c2)c1` (stereo unspecified), for which the MIC80 against Nannizzia gypsea is 1 µg/mL (≈ 1.61 µM); against Candida tropicalis it was 0.25 µg/mL (≈ 0.402 µM); with Aspergillus fumigatus, more than 64 µg/mL; in the assay on Fusarium it was 64 µg/mL (≈ 103 µM); against Candida albicans, 0.0625 µg/mL (≈ 0.1 µM); with Trichophyton rubrum, 0.0625 µg/mL (≈ 0.1 µM). Moreover, the MIC80 with Cryptococcus neoformans and against Candida parapsilosis was 1 µg/mL (≈ 1.61 µM) in each case.
On to `O=C(/C=C/c1cccc([N+](=O)[O-])c1)Nc1ccc(N2CCN(CC(O)(Cn3cncn3)c3ccc(F)cc3F)CC2)cc1` (stereo unspecified), for which the MIC80 amounted to 0.25 µg/mL (≈ 0.424 µM) with Nannizzia gypsea; 0.25 µg/mL (≈ 0.424 µM) against Candida tropicalis; 4 µg/mL (≈ 6.78 µM) in the assay on Aspergillus fumigatus; 1 µg/mL (≈ 1.7 µM) in the assay with Fusarium; 0.0156 µg/mL (≈ 0.0265 µM) against Candida albicans; 0.0625 µg/mL (≈ 0.106 µM) in the assay with Trichophyton rubrum. For the same molecule, the MIC80 amounted to 0.25 µg/mL (≈ 0.424 µM) in the assay on Cryptococcus neoformans and 0.0625 µg/mL (≈ 0.106 µM) in the assay on Candida parapsilosis.
As to `O=C(/C=C/c1ccccc1)Nc1ccc(N2CCN(CC(O)(Cn3cncn3)c3ccc(F)cc3F)CC2)cc1` (stereo unspecified), the MIC80 came out at 0.25 µg/mL (≈ 0.459 µM) in the assay with Nannizzia gypsea; 0.0625 µg/mL (≈ 0.115 µM) in the assay with Candida tropicalis; 16 µg/mL (≈ 29.4 µM) in the assay with Aspergillus fumigatus; 0.0625 µg/mL (≈ 0.115 µM) with Fusarium; 0.0156 µg/mL (≈ 0.0286 µM) in the assay on Candida albicans; 0.0039 µg/mL (≈ 0.00716 µM) in the assay on Trichophyton rubrum. Further, the MIC80 is 0.25 µg/mL (≈ 0.459 µM) in the assay on Cryptococcus neoformans and 0.0625 µg/mL (≈ 0.115 µM) with Candida parapsilosis.
Consider `O=C(/C=C/c1ccc(Cl)cc1)Nc1ccc(N2CCN(CC(O)(Cn3cncn3)c3ccc(F)cc3F)CC2)cc1` (stereo unspecified), for which the MIC80 against Nannizzia gypsea turned out to be 0.25 µg/mL (≈ 0.432 µM); against Candida tropicalis, 0.25 µg/mL (≈ 0.432 µM); with Aspergillus fumigatus it was 64 µg/mL (≈ 111 µM); in the assay with Fusarium it was 4 µg/mL (≈ 6.91 µM); against Candida albicans it was 0.0625 µg/mL (≈ 0.108 µM); in the assay with Trichophyton rubrum it was 0.25 µg/mL (≈ 0.432 µM). The MIC80 in the assay with Cryptococcus neoformans amounted to 1 µg/mL (≈ 1.73 µM); with Candida parapsilosis, 0.25 µg/mL (≈ 0.432 µM).
For `COc1ccc(/C=C/C(=O)Nc2ccc(N3CCN(CC(O)(Cn4cncn4)c4ccc(F)cc4F)CC3)c(F)c2)cc1OC` (stereo unspecified), the MIC80 is 0.25 µg/mL (≈ 0.402 µM) in the assay with Nannizzia gypsea; 1 µg/mL (≈ 1.61 µM) against Candida tropicalis; more than 64 µg/mL against Aspergillus fumigatus; 4 µg/mL (≈ 6.42 µM) against Fusarium; 0.25 µg/mL (≈ 0.402 µM) against Candida albicans; 4 µg/mL (≈ 6.42 µM) in the assay with Trichophyton rubrum. Also, the MIC80 was 1 µg/mL (≈ 1.61 µM) against Cryptococcus neoformans and 0.25 µg/mL (≈ 0.402 µM) with Candida parapsilosis.
`O=C(/C=C/c1ccccc1Cl)Nc1ccc(N2CCN(CC(O)(Cn3cncn3)c3ccc(F)cc3F)CC2)cc1` (stereo unspecified): the MIC80 was 0.0156 µg/mL (≈ 0.0269 µM) in the assay on Nannizzia gypsea; 0.0625 µg/mL (≈ 0.108 µM) with Candida tropicalis; 4 µg/mL (≈ 6.91 µM) in the assay with Aspergillus fumigatus; 1 µg/mL (≈ 1.73 µM) in the assay on Fusarium; 0.0039 µg/mL (≈ 0.00674 µM) against Candida albicans; 0.0156 µg/mL (≈ 0.0269 µM) against Trichophyton rubrum. Moreover, the MIC80 against Cryptococcus neoformans and with Candida parapsilosis was 0.25 µg/mL (≈ 0.432 µM) in each case.
With `O=C(/C=C/c1ccc(Cl)cc1)Nc1ccc(N2CCN(CC(O)(Cn3cncn3)c3ccc(F)cc3F)CC2)c(F)c1` (stereo unspecified), the MIC80 against Nannizzia gypsea amounted to 0.0625 µg/mL (≈ 0.105 µM); in the assay with Candida tropicalis, 0.0625 µg/mL (≈ 0.105 µM); with Aspergillus fumigatus, 1 µg/mL (≈ 1.67 µM); with Fusarium, 0.25 µg/mL (≈ 0.419 µM); against Candida albicans, 0.25 µg/mL (≈ 0.419 µM); with Trichophyton rubrum, 0.25 µg/mL (≈ 0.419 µM). Also, the results for the MIC80 in the assay on Cryptococcus neoformans and in the assay on Candida parapsilosis were 0.25 µg/mL (≈ 0.419 µM) and 0.0156 µg/mL (≈ 0.0261 µM), respectively.
In the case of `O=C(/C=C/c1ccccc1)Nc1ccc(N2CCN(CC(O)(Cn3cncn3)c3ccc(F)cc3F)CC2)c(F)c1` (stereo unspecified), the MIC80 in the assay on Nannizzia gypsea came to 0.25 µg/mL (≈ 0.444 µM); against Candida tropicalis it was 0.0625 µg/mL (≈ 0.111 µM); against Aspergillus fumigatus, 1 µg/mL (≈ 1.78 µM); against Fusarium it was 0.25 µg/mL (≈ 0.444 µM); against Candida albicans, 0.25 µg/mL (≈ 0.444 µM); against Trichophyton rubrum, 0.0625 µg/mL (≈ 0.111 µM). In addition, the MIC80 in the assay with Cryptococcus neoformans is 0.0156 µg/mL (≈ 0.0277 µM); against Candida parapsilosis it was 0.0625 µg/mL (≈ 0.111 µM).
In the case of `O=C(/C=C/c1cccc([N+](=O)[O-])c1)Nc1ccc(N2CCN(CC(O)(Cn3cncn3)c3ccc(F)cc3F)CC2)c(F)c1` (stereo unspecified), the MIC80 is 0.0625 µg/mL (≈ 0.103 µM) against Nannizzia gypsea; 0.0625 µg/mL (≈ 0.103 µM) against Candida tropicalis; more than 64 µg/mL against Aspergillus fumigatus; 0.0625 µg/mL (≈ 0.103 µM) against Fusarium; 0.0039 µg/mL (≈ 0.00642 µM) in the assay on Candida albicans; 0.0625 µg/mL (≈ 0.103 µM) against Trichophyton rubrum. The MIC80 with Cryptococcus neoformans and with Candida parapsilosis was 0.0625 µg/mL (≈ 0.103 µM) in each case.
With `O=C(/C=C/c1ccccc1[N+](=O)[O-])Nc1ccc(N2CCN(CC(O)(Cn3cncn3)c3ccc(F)cc3F)CC2)cc1` (stereo unspecified), the MIC80 against Nannizzia gypsea was 0.25 µg/mL (≈ 0.424 µM); in the assay on Candida tropicalis, 0.0625 µg/mL (≈ 0.106 µM); against Aspergillus fumigatus, more than 64 µg/mL; in the assay with Fusarium, 4 µg/mL (≈ 6.78 µM); in the assay with Candida albicans, 0.0156 µg/mL (≈ 0.0265 µM); in the assay with Trichophyton rubrum it was 0.0625 µg/mL (≈ 0.106 µM). For the same molecule, the MIC80 against Cryptococcus neoformans stood at 1 µg/mL (≈ 1.7 µM); in the assay with Candida parapsilosis it was 0.25 µg/mL (≈ 0.424 µM).
With `O=C(/C=C/c1ccc([N+](=O)[O-])cc1)Nc1ccc(N2CCN(CC(O)(Cn3cncn3)c3ccc(F)cc3F)CC2)cc1` (stereo unspecified), the MIC80 in the assay with Nannizzia gypsea amounted to 0.0625 µg/mL (≈ 0.106 µM); in the assay on Candida tropicalis, 0.25 µg/mL (≈ 0.424 µM); in the assay with Aspergillus fumigatus, 4 µg/mL (≈ 6.78 µM); in the assay on Fusarium it was 16 µg/mL (≈ 27.1 µM); against Candida albicans, 0.0625 µg/mL (≈ 0.106 µM); against Trichophyton rubrum, 0.0156 µg/mL (≈ 0.0265 µM). The MIC80 against Cryptococcus neoformans and against Candida parapsilosis was 1 µg/mL (≈ 1.7 µM) each time.
In the case of `O=C(/C=C/c1ccc(Br)cc1)Nc1ccc(N2CCN(CC(O)(Cn3cncn3)c3ccc(F)cc3F)CC2)c(F)c1` (stereo unspecified), the MIC80 in the assay on Nannizzia gypsea was determined as 0.0625 µg/mL (≈ 0.0974 µM); against Candida tropicalis, 0.0156 µg/mL (≈ 0.0243 µM); against Aspergillus fumigatus, 1 µg/mL (≈ 1.56 µM); in the assay on Fusarium, 1 µg/mL (≈ 1.56 µM); against Candida albicans it was 0.25 µg/mL (≈ 0.39 µM); in the assay with Trichophyton rubrum, 0.0625 µg/mL (≈ 0.0974 µM). In addition, the MIC80 in the assay on Cryptococcus neoformans is 0.0156 µg/mL (≈ 0.0243 µM); against Candida parapsilosis, 0.0625 µg/mL (≈ 0.0974 µM).
Regarding `O=C(/C=C/c1ccccc1Cl)Nc1ccc(N2CCN(CC(O)(Cn3cncn3)c3ccc(F)cc3F)CC2)c(F)c1` (stereo unspecified), the MIC80 against Nannizzia gypsea came out at 0.25 µg/mL (≈ 0.419 µM); in the assay on Candida tropicalis, 0.25 µg/mL (≈ 0.419 µM); in the assay with Aspergillus fumigatus it was 4 µg/mL (≈ 6.7 µM); in the assay on Fusarium, 1 µg/mL (≈ 1.67 µM); against Candida albicans it was 1 µg/mL (≈ 1.67 µM); with Trichophyton rubrum it was 0.25 µg/mL (≈ 0.419 µM). The MIC80 against Cryptococcus neoformans stood at 1 µg/mL (≈ 1.67 µM); in the assay with Candida parapsilosis it was 0.25 µg/mL (≈ 0.419 µM).
Take `CCC(C)n1ncn(-c2ccc(N3CCN(c4ccc(OCC5COC(Cn6cncn6)(c6ccc(Cl)cc6Cl)O5)cc4)CC3)cc2)c1=O` (stereo unspecified) [ITRACONAZOLE]: the MIC80 in the assay with Nannizzia gypsea is 0.0152 µg/mL (≈ 0.0215 µM); with Candida tropicalis, 0.25 µg/mL (≈ 0.354 µM); in the assay on Aspergillus fumigatus, 1 µg/mL (≈ 1.42 µM); with Fusarium it was 0.25 µg/mL (≈ 0.354 µM); against Candida albicans it was 1 µg/mL (≈ 1.42 µM); against Trichophyton rubrum it was 0.0152 µg/mL (≈ 0.0215 µM). Further, the values for the MIC80 with Cryptococcus neoformans and with Candida parapsilosis were 1 µg/mL (≈ 1.42 µM) and 0.25 µg/mL (≈ 0.354 µM), respectively.
Take `O=C(/C=C/c1ccc(Br)cc1)Nc1ccc(N2CCN(CC(O)(Cn3cncn3)c3ccc(F)cc3F)CC2)cc1` (stereo unspecified): the MIC80 came out at 0.25 µg/mL (≈ 0.401 µM) in the assay with Nannizzia gypsea; 0.25 µg/mL (≈ 0.401 µM) in the assay on Candida tropicalis; 4 µg/mL (≈ 6.42 µM) with Aspergillus fumigatus; 1 µg/mL (≈ 1.6 µM) against Fusarium; 0.0625 µg/mL (≈ 0.1 µM) in the assay with Candida albicans; 0.0156 µg/mL (≈ 0.025 µM) with Trichophyton rubrum. Also, the MIC80 with Cryptococcus neoformans and in the assay with Candida parapsilosis was 0.25 µg/mL (≈ 0.401 µM) in each case.

For the origin of these results see ChEMBL document CHEMBL1641470, “New azoles with antifungal activity: Design, synthesis, and molecular docking” (2011).
